Measurements reported in patent US8217167B2, “Phenanthrylphenol linked pyrrolo [2, l-c] [l, 4] benzodiazepine hybrids as potential antitumour agents and process for the preparation thereof” (Council of Scientific & Industrial Research, priority 2008, dated 2012).

Key:
Liver HEP-2 = assay type: cell-based; conditions: human
Source text: (§1) The compounds 6a-c (n=1-3) were examined for preliminary in vitro cytotoxicity on six cell lines, among these compound's 6a has shown promising activity as shown in Table 2 and was further taken up detailed in vitro anticancer activity at the National Cancer Institute, Maryland, USA.

Colon HCT-15 = assay type: cell-based; conditions: human
Source text: as §1

Neuroblastoma IMR-32 = assay type: cell-based; conditions: human
Source text: as §1

Lung A-549 = assay type: cell-based; conditions: human
Source text: as §1

Colon 502713 = assay type: cell-based; conditions: human
Source text: as §1

Ovary OVCAR-5 = assay type: cell-based; conditions: human
Source text: as §1

[1] = system: duplex-form calf thymus DNA (CT-DNA); experiment: Thermal denaturation studies with calf thymus DNA; assay type: binding; conditions: [PBD]:[DNA] molar ratio 1:5, CT-DNA 100 μM, ligand 20 μM, sodium phosphate buffer pH 7.00; for ΔTm after incubation at 37° C. for 0 h: 0 h incubation at 37° C.; for ΔTm after incubation at 37° C. for 18 h: 18 h incubation at 37° C.
Procedure: Compounds have been subjected to thermal denaturation studies with duplex-form calf thymus DNA (CT-DNA) using a modification of a reported procedure (Newman, M. S. Carcinog-compr. Surv. 1976, 1, 203; (b) Hecht, S. S.; Loy, M.; Hoffman, Carcinog-compr. Surv. 1976, 1, 325). Working solutions in aqueous buffer (10 mM NaH2PO4/Na2HPO4, 1 mM Na2EDTA, pH 7.00+0.01) containing CT-DNA (100 μm in phosphate) and the PBD (20 μm) have been prepared by addition of concentrated PBD solutions in DMSO to obtain a fixed [PBD]/[DNA] molar ratio of 1:5. The DNA-PBD solutions have been incubated at 37° C. for 0 and 18 h prior to analysis. Samples have been monitored at 260 nm using a Beckman DU-800 spectrophotometer fitted with high performance temperature controller, and heated at 1° C. min^−1 in the 40-110° C. range. DNA helix→coil transition temperatures (Tm) have been obtained from the maxima in the d(A260)/dT derivative plots. Drug-induced alterations in DNA melting behavior are given by: ΔTm=Tm(DNA+PBD)−Tm(DNA alone), where the Tm value for the PBD-free CT-DNA is 69.1±0.01.
The DNA binding activity for these new C8-linked phenanthrylphenol-PBD hybrids has been examined by thermal denaturation studies using calf thymus (CT) DNA. […] The data for the compounds 6a-c is included in Table 1 for comparison.

Renal cancer cell lines = experiment: NCI in vitro anticancer activity (SRB assay), Renal panel; assay type: cell-based; conditions: Homo sapiens
Procedure: (§2) The compound 6a was evaluated for in vitro anticancer activity against sixty human tumour cells derived from nine cancer panels (leukemia, non-small-cell lung, colon, CNS, melanoma, ovarian, prostate, renal and breast cancer) as shown in Table 4. For compound 6a, dose response curves for each cell line were measured at a minimum of five concentrations at 10 fold dilutions. A protocol of 48 h continuous drug exposure was used and a sulforhodamine B (SRB) protein assay was used to estimate cell viability or growth. The concentration causing 50% cell growth inhibition (GI50), total cell growth inhibition (TGI 0% growth) and 50% cell death (LC50, […]) compared with the control was calculated.
(§3) Each cancer type represents the average of six to nine different cancer cell lines.

[2] = system: sixty human tumour cells derived from nine cancer panels; experiment: NCI in vitro anticancer activity (SRB assay), mean graph midpoints over sixty cell lines; assay type: cell-based
Procedure: as §2

Breast cancer cell lines = experiment: NCI in vitro anticancer activity (SRB assay), Breast panel; assay type: cell-based; conditions: Homo sapiens
Procedure: as §2, §3

Colon cancer cell lines = experiment: NCI in vitro anticancer activity (SRB assay), Colon panel; assay type: cell-based; conditions: Homo sapiens
Procedure: as §2, §3

[3] = system: Ovarian cancer cell lines; experiment: NCI in vitro anticancer activity (SRB assay), Ovarian panel; assay type: cell-based; conditions: Homo sapiens
Procedure: as §2, §3

[4] = system: Non-small-cell-lung cancer cell lines; experiment: NCI in vitro anticancer activity (SRB assay), Non-small-cell-lung panel; assay type: cell-based; conditions: Homo sapiens
Procedure: as §2, §3

[5] = system: Leukemia cancer cell lines; experiment: NCI in vitro anticancer activity (SRB assay), Leukemia panel; assay type: cell-based; conditions: Homo sapiens
Procedure: as §2, §3

[6] = system: Melanoma cancer cell lines; experiment: NCI in vitro anticancer activity (SRB assay), Melanoma panel; assay type: cell-based; conditions: Homo sapiens
Procedure: as §2, §3

[7] = system: Prostate cancer cell lines; experiment: NCI in vitro anticancer activity (SRB assay), Prostate panel; assay type: cell-based; conditions: Homo sapiens
Procedure: as §2, §3

CNS cancer cell lines = experiment: NCI in vitro anticancer activity (SRB assay), CNS panel; assay type: cell-based; conditions: Homo sapiens
Procedure: as §2, §3

[8] = 48 h, read-out: Log10 LC50 (concentration in mol/L causing 50% lethality) (converted)

## COc1cc2c(cc1OCCCCOc1ccc(-c3cc4ccccc4c4ccccc34)cc1)N=C[C@@H]1CCCN1C2=O [Compound 6b, (11aS)-7-methoxy-8-4-[4-(9-phenanthryl)phenoxy]butoxy-2,3,5,11a-tetrahydro-1H-benzo[e]pyrrolo[1,2-a][1,4]diazepin-5-one]
Liver HEP-2
  Preliminary in vitro cytotoxicity data, Liver HEP-2: 49
Colon HCT-15
  Preliminary in vitro cytotoxicity data, Colon HCT-15: 77
Neuroblastoma IMR-32
  Preliminary in vitro cytotoxicity data, Neuroblastoma IMR-32: 67
Lung A-549
  Preliminary in vitro cytotoxicity data, Lung A-549: 50
Colon 502713
  Preliminary in vitro cytotoxicity data, Colon 502713: 72
Ovary OVCAR-5
  Preliminary in vitro cytotoxicity data, Ovary OVCAR-5: 93
[1]
  ΔTm after incubation at 37° C. for 0 h: 0.3 °C
  ΔTm after incubation at 37° C. for 18 h: 0.5 °C

## COc1cc2c(cc1OCCCOc1ccc(-c3cc4ccccc4c4ccccc34)cc1)N=C[C@@H]1CCCN1C2=O [Compound 6a, (11aS)-7-methoxy-8-3-[4-(9-phenanthryl)phenoxy]propoxy-2,3,5,11a-tetrahydro-1H-benzo[e]pyrrolo[1,2-a][1,4]diazepin-5-one]
Liver HEP-2
  Preliminary in vitro cytotoxicity data, Liver HEP-2: 58
Colon HCT-15
  Preliminary in vitro cytotoxicity data, Colon HCT-15: 99
Neuroblastoma IMR-32
  Preliminary in vitro cytotoxicity data, Neuroblastoma IMR-32: 85
Lung A-549
  Preliminary in vitro cytotoxicity data, Lung A-549: 88
Colon 502713
  Preliminary in vitro cytotoxicity data, Colon 502713: 69
Ovary OVCAR-5
  Preliminary in vitro cytotoxicity data, Ovary OVCAR-5: 98
[1]
  ΔTm after incubation at 37° C. for 0 h: 1.0 °C
  ΔTm after incubation at 37° C. for 18 h: 1.8 °C
Renal cancer cell lines; [8]
  LC50 (50% lethal concentration): 3630 nM
Renal cancer cell lines; Renal panel average, 48 h exposure, SRB, read-out: Log10 GI50 (concentration in mol/L) (converted)
  GI50: 490 nM
[2]; 48 h continuous drug exposure, SRB assay, mean over human tumour cell lines
  Log10 TGI mean graph midpoint (MG_MID): −5.76
[2]; 48 h continuous drug exposure, SRB assay, mean over human tumour cell lines, read-out: Log10 GI50 mean graph midpoint (MG_MID) (converted)
  GI50: 525 nM
[2]; Homo sapiens, 48 h, read-out: Log10 LC50 mean graph midpoint (MG_MID) (converted)
  CC50: 5500 nM
Breast cancer cell lines; [8]
  LC50 (50% lethal concentration): 8710 nM
Breast cancer cell lines; Breast panel average, 48 h exposure, SRB, read-out: Log10 GI50 (concentration in mol/L) (converted)
  GI50: 339 nM
Colon cancer cell lines; [8]
  CC50: 4900 nM
Colon cancer cell lines; Colon panel average, 48 h exposure, SRB, read-out: Log10 GI50 (concentration in mol/L) (converted)
  GI50: 776 nM
[3]; [8]
  CC50: 3720 nM
[3]; Ovarian panel average, 48 h exposure, SRB, read-out: Log10 GI50 (concentration in mol/L) (converted)
  GI50: 501 nM
[4]; [8]
  LC50: 5370 nM
[4]; Non-small-cell-lung panel average, 48 h exposure, SRB, read-out: Log10 GI50 (concentration in mol/L) (converted)
  GI50: 776 nM
[5]; [8]
  CC50: 15100 nM
[5]; Leukemia panel average, 48 h exposure, SRB, read-out: Log10 GI50 (concentration in mol/L) (converted)
  GI50: 195 nM
[6]; [8]
  LC50: 4680 nM
[6]; Melanoma panel average, 48 h exposure, SRB, read-out: Log10 GI50 (concentration in mol/L) (converted)
  GI50: 692 nM
[7]; [8]
  LC50 (concentration causing 50% tumour cell death): 3890 nM
[7]; Prostate panel average, 48 h exposure, SRB, read-out: Log10 GI50 (concentration in mol/L) (converted)
  GI50: 398 nM
CNS cancer cell lines; [8]
  LC50: 4680 nM
CNS cancer cell lines; CNS panel average, 48 h exposure, SRB, read-out: Log10 GI50 (concentration in mol/L) (converted)
  GI50: 813 nM

## COc1cc2c(cc1OCCCCCOc1ccc(-c3cc4ccccc4c4ccccc34)cc1)N=C[C@@H]1CCCN1C2=O [Compound 6c, (11aS)-7-methoxy-8-(5-[4-(9-phenanthryl)phenoxy]pentyloxy)-2,3,5,11a-tetrahydro-1H-benzo[e]pyrrolo[1,2-a][1,4]diazepin-5-one]
Liver HEP-2
  Preliminary in vitro cytotoxicity data, Liver HEP-2: 65
Colon HCT-15
  Preliminary in vitro cytotoxicity data, Colon HCT-15: 79
Neuroblastoma IMR-32
  Preliminary in vitro cytotoxicity data, Neuroblastoma IMR-32: 73
Lung A-549
  Preliminary in vitro cytotoxicity data, Lung A-549: 36
Colon 502713
  Preliminary in vitro cytotoxicity data, Colon 502713: 74
Ovary OVCAR-5
  Preliminary in vitro cytotoxicity data, Ovary OVCAR-5: 98
[1]
  ΔTm after incubation at 37° C. for 0 h: 0.1 °C
  ΔTm after incubation at 37° C. for 18 h: 0.2 °C

## COc1cc2c(cc1O)N=CC1CCCN1C2=O (centres unmarked) [DC-81, reference compound]
[1]
  ΔTm after incubation at 37° C. for 0 h: 0.3 °C
  ΔTm after incubation at 37° C. for 18 h: 0.7 °C
